Structures are written as SMILES. ≈ marks a conversion by molar mass, not a printed value.

A word on the inhibition: it is the change of the read-out against control, counted positive when it falls. The low end stands for a response near the control, the high end for a response far below the control. Usually IC50 stands for the concentration that inhibits the measured activity by half. High values mean weaker potency, low ones greater potency. The solubility is how much of the substance goes into solution per volume. Read a low solubility as little dissolved substance.

One data set has as its target mPDE11A4 (Mus musculus, UniProt P0C1Q2). The data set can be described thus: Reversal of aging-like punctate accumulations of EmGFP-mPDE11A4 in HT-22 hippocampal cells. It is filed as cell-based. To be noted: HT-22 cells overexpressing EmGFP-mPDE11A4. As for the experimental part: In vivo, expression of PDE11A4 increases in the hippocampus across the lifespan in humans and rodents, resulting in age-related punctate accumulations of PDE11A4 protein in “ghost axons.” These age-related PDE11A4 accumulations were mimicked by overexpressing mouse PDE11A4 in mouse HT-22 hippocampal cells. FIGS. 31A-31B is an image of HT-22 cells overexpressing EmGFP-mPDE11A4 treated with the vehicle DMSO (FIG. 30A) or 1 uM 25b (FIG. 30B).
See FIGS. 35A and 35B, which show images of HT-22 cells overexpressing EmGFP-mPDE11A4 treated with the vehicle DMSO (35A) or 1 uM 25b (35B).

In a further data set the target is T1, PDE11A4 (Homo sapiens, UniProt Q9HCR9).
T1 construct: purchased BPS Bioscience
T1 sequence (Q9HCR9 whole entry): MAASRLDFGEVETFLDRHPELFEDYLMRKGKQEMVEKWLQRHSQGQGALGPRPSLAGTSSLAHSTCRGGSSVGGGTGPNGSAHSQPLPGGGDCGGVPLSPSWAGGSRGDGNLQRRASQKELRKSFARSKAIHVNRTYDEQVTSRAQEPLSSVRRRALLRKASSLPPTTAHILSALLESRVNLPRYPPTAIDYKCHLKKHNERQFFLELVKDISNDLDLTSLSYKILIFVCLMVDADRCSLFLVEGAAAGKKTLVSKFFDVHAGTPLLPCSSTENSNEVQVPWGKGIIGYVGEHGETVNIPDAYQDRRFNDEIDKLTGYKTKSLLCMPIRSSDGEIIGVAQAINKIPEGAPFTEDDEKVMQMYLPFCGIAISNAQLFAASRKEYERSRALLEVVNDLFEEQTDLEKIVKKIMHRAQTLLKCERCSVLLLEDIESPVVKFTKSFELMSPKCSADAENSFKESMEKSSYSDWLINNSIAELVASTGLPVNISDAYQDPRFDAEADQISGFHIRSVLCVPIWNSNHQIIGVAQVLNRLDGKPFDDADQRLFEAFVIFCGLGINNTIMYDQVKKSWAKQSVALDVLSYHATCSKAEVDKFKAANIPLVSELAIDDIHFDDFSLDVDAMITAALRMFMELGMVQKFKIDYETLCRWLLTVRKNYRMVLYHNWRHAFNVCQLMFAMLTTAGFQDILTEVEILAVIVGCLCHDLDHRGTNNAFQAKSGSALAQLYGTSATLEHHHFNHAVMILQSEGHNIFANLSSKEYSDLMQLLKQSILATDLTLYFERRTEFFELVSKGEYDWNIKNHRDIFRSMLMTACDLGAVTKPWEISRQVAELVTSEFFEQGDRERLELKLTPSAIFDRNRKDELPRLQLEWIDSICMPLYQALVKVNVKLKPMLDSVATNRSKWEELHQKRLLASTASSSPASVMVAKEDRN
The experiment in a line: In vitro PDE11A4 enzyme inhibition assay (Ba(OH)2 precipitation method). It is filed as biochemical. The conditions noted are these: for IC50: in vitro. On the procedure:
In vitro enzyme assays are conducted via the Ba(OH)2 precipitation method of Wang et al. using commercially-available recombinant PDEs representing all 11 PDE families. Assays for PDE11A inhibition are carried out with both 200 nM cAMP and 100 nM cGMP. Substrate concentrations for the remaining PDEs are 100 nM cGMP (PDE1C), 1 μM cGMP (PDE2A), 30 nM cGMP (PDE3B), 120 nM cAMP (PDE4D), 500 nM cGMP (PDE5A), […] (PDE6C), 15 nM cAMP (PDE7A), 10 nM cAMP (PDE8A), 70 nM cGMP (PDE9A), and 30 nM cAMP (PDE10A).
These compounds were profiled further using additional commercially available analogs and by in vitro ADME characteristics. The synthesis of these analogs is illustrated in the schemes of FIGS. 24-26. […] In the rightmost column of FIG. 27B, percent (%) values refer to percent inhibition, and non-percent values refer to IC50 values.
In vitro enzyme assays were conducted via the Ba(OH)2 precipitation method of Wang et al. using recombinant human PDE3A, PDE4D3, PDE5A, PDE6C, PDE10A1, and PDE11A4 (BPS Bioscience)). Substrate concentrations used were 15 nM cGMP (PDE3A), 18 nM cAMP (PDE3A) 200 nM cAMP (PDE4D3), 500 nM cGMP (PDE5A), 1.7 μM cGMP (PDE6C), 30 nM cAMP (PDE10A), […] (PDE10A), 100 nM cGMP (PDE11A4) and 240 nM cAMP (PDE11A4). […] Inhibitor concentrations of 4, 13.7, 40, 123, 370, 1110, 3330 and 10,000 nM were used. The values reported are means of at least three independent experiments. Substrate concentrations were ~0.1×KM for each enzyme; thus, IC50 values approximate the Ki values.

Data set [1] can be described thus: Kinetic aqueous solubility, pH 7.4. It is filed as physicochemical. To be noted: aqueous buffer, PBS, Example 4 Table 1. On the procedure: The mixture is agitated at 25° C. for 1 hour, filtered and evaluated by UV and/or LCMSMS analysis. Data are reported as mg/mL and μM concentration.
Data set [2] can be described thus: Metabolic stability in human liver microsomes. It is filed as in vitro ADME. As for the experimental part: (§1) Metabolic stability: Samples at 37° C. in the presence of human or mouse liver microsomes and NADPH according to standard methods. Aliquots are removed at 5 time points, quenched and analyzed (LCMS/MS and MS/MS as needed) for remaining test compound, along with a positive control. Microsomal protein content is adjusted to give consistent results. Data are reported as half-life and clearance. Assay acceptance criteria is 20% for all standards and 25% for the LLOQ.
(Liver microsomes are a subcellular fraction often used to study metabolism.)

The target in another data set is CYP2D6 (Homo sapiens, UniProt P10635). The experiment in a line: CYP2D6 inhibition (fluorescent substrate). The conditions noted are these: Example 4 Table 1. Format: in vitro ADME. On the procedure: (§2) CYP inhibition: Compounds are assessed for their ability to inhibit the three major human cytochrome P450 enzymes, 3A4, 2D6 and 2C9. Expressed enzymes are used to minimize non-specific binding and membrane partitioning issues. The 3A4 assay uses testosterone as a substrate and is analyzed by LC/MS/MS on a Waters TQ instrument using positive or negative electrospray ionization. The 2D6 and 2C9 assays use fluorescent substrates and are analyzed on an Envision Plate Reader.
Chain of CYP2D6 (P10635 whole entry): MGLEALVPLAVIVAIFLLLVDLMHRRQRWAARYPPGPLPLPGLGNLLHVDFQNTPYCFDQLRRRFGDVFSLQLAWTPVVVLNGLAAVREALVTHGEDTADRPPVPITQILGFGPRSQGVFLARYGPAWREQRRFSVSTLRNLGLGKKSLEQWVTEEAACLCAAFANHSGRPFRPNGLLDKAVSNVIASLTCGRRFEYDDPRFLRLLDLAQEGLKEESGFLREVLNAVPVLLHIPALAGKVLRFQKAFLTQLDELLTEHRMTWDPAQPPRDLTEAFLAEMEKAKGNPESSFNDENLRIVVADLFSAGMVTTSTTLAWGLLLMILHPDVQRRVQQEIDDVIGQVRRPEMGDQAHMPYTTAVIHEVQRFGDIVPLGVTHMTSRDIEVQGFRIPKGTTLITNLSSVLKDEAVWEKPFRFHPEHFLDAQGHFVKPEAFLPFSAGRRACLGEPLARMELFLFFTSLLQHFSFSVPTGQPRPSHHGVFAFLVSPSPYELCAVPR

The subject of a further data set is MDCK cell monolayers. The experiment in a line: MDCK / MDCK-MDR1 permeability and efflux. It is filed as in vitro ADME. To be noted: Example 4 Table 1. As for the experimental part: MDCK permeability: MDCK cell monolayers (Absorption Systems, Malvern, PA) are grown to confluence on collagen-coated microporous membranes in 12-well assay plates. Assay buffer consists of Hanks' balanced salt solution containing 10 mM HEPES and 15 mM glucose at pH—7.4. The buffer in the receiver chamber also contains 1% bovine serum albumin. Compounds are tested at a final concentration of 5 μM in the assay buffer. Cell monolayers are dosed on the apical side (A-B) or basolateral side (B-A) and incubated at 37° C. with 5% CO2 in a humidified incubator. Samples are taken from the donor and receiver chambers at 120 minutes. Each determination is performed in duplicate. The flux of Lucifer yellow is also measured post-experimentally for each monolayer to ensure no damage is inflicted to the monolayer during flux period. Samples are assayed on a Waters TQ LC/MS/MS using positive or negative electrospray ionization.

In the next data set the target is CYP2C9 (Homo sapiens, UniProt P11712). The experiment in a line: CYP2C9 inhibition (fluorescent substrate). It is filed as in vitro ADME. To be noted: Example 4 Table 1. On the procedure:
as §2

Another data set concerns the target CYP3A4 (Homo sapiens, UniProt P08684). The data set can be described thus: CYP3A4 inhibition (testosterone substrate). It is filed as in vitro ADME. The conditions noted are these: Example 4 Table 1. On the procedure: as §2
Data set [3] is described as follows: Metabolic stability in mouse liver microsomes. Format: in vitro ADME. On the procedure:
as §1

Chain of mPDE11A4 (P0C1Q2 whole entry): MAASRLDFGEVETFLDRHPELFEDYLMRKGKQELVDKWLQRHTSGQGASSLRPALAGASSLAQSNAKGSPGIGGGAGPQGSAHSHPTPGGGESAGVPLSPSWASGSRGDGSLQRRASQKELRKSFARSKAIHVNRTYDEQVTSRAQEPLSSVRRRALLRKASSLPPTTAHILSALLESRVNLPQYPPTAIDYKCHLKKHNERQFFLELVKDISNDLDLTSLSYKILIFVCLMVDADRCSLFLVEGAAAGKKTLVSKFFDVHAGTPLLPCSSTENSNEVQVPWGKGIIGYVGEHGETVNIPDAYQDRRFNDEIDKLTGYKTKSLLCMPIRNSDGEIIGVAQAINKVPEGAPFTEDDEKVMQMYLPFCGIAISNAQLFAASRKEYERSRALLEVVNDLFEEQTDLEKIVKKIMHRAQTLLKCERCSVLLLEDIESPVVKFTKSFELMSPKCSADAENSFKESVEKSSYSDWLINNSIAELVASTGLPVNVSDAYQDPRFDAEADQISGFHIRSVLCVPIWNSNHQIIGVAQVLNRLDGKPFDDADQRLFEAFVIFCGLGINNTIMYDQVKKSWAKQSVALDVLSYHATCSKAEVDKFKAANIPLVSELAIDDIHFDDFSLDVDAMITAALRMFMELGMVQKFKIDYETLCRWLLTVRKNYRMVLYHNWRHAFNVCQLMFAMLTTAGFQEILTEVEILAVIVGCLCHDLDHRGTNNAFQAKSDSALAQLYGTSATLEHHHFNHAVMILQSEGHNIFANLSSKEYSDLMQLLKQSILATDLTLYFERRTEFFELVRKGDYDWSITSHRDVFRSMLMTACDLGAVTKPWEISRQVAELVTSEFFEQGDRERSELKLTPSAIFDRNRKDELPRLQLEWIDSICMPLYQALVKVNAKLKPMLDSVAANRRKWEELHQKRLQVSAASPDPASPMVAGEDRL
Chain of CYP3A4 (P08684 whole entry): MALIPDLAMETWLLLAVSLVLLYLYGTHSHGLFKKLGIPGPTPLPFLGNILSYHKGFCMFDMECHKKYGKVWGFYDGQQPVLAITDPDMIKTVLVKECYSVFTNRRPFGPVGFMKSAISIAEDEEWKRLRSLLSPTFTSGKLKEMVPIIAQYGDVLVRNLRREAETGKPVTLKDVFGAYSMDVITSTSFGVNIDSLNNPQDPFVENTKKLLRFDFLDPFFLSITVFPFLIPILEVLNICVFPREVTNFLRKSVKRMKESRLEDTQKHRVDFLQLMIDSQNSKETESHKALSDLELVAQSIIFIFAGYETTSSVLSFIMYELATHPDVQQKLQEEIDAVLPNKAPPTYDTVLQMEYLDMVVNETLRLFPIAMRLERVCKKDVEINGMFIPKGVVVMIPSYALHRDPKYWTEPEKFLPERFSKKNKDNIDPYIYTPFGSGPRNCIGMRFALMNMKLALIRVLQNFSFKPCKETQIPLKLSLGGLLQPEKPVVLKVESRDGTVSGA
Chain of CYP2C9 (P11712 whole entry): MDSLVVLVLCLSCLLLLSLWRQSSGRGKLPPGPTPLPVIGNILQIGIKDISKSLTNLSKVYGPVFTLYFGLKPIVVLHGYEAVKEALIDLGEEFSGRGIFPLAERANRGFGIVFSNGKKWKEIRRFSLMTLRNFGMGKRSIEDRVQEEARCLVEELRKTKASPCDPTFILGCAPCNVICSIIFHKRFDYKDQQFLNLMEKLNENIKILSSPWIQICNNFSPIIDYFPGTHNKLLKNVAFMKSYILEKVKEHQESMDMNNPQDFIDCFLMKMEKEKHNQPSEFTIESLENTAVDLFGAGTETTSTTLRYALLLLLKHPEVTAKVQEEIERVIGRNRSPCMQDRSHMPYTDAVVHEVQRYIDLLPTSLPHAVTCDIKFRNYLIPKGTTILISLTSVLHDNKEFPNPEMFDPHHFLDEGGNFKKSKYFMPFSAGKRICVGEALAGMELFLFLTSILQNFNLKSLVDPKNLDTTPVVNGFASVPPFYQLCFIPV

Regarding `CCCSc1nc2c(c(=O)n1-c1ccccc1)SCC2` [BC11-38], the “reversal of aging-like accumulations of mPDE11A4” value at mPDE11A4 was “able to reverse these aging-like accumulations of mPDE11A4”.

Take `CN1CC(=O)N2[C@H](c3ccc4c(c3)OCO4)c3[nH]c4ccccc4c3C[C@@H]2C1=O` [Tadalafil, tadalafil]: the “reversal of aging-like accumulations of mPDE11A4” value at mPDE11A4 is reported as “able to reverse these aging-like accumulations of mPDE11A4”.

In turn, `CCn1nccc1-c1cc(-c2ncc(C)s2)c2cnn(-c3ccccc3)c2n1` [Compound 1001] registered an inhibition at 0.5 µM against PDE11A4 (@500 nM) of 62%.

In turn, `CCn1nccc1-c1cc(-c2ncc(C)o2)c2cnn(-c3ccccc3)c2n1` [Compound 1003] returned an IC50 on PDE11A4 of 0.14 µM.

In the case of `CCn1nccc1-c1cc(-c2nnc(C)o2)c2cnn(-c3ccccc3)c2n1` [Compound 1007], the half-maximal inhibitory concentration (IC50) on PDE11A4 worked out at 0.07 µM.

For `CCn1nccc1-c1cc(-c2nnc(C)s2)c2cnn(-c3ccccc3)c2n1` [Compound 1005], at PDE11A4, it took 0.17 µM to reach half-maximal inhibition (IC50).

`CCN(CC)C(=O)c1cc(-c2cccs2)nc2c1c(C)nn2-c1ccccc1` [Compound 3001]: the concentration in solution in data set [1] (solubility) came to 54 µM (≈ 21.1 µg/mL). The microsomal CLint in data set [2] (Example 4 Table 1, read-out: Human Liver Microsome Clint) is more than 690 µL/min/mg; in [3] (Example 4 Table 1, read-out: Mouse Liver Microsome Clint), more than 690 µL/min/mg. For the same compound, the half-life in [2] (Example 4 Table 1, read-out: Human Liver Microsome Stability t½) was less than 2 min; in data set [3] (Example 4 Table 1, read-out: Mouse Liver Microsome Stability t½), less than 2 min. For the same compound, the IC50 at CYP2D6 is more than 10 µM; at CYP2C9, 4.9 µM; against CYP3A4, 3 µM. In the data set with MDCK cell monolayers, the “MDCK1 A:B” value was 0.78.

The values are drawn from patent publication US20260347351A1, “INHIBITORS OF PDE11A4 AND METHODS OF USING SAME” (UNIVERSITY OF MARYLAND, BALTIMORE, priority 2022, published 2026).
